The target of one assay is Mcl-1 (Homo sapiens (Human), UniProt Q07820). The assay is described as follows: TR-FRET binding assay, FITC-Bak peptide and MBP-tagged Mcl-1. The settings on record: read-out: Ki for Inhibition of Mcl-1 by TR-FRET assay. The method, then: Compounds are diluted in DMSO in a 16-point, semilog serial dilution scheme. […] The plate was mixed and incubated for 3 hours at room temperature. […] TR-FRET signal is plotted and IC50 and Ki values are calculated in the same manner as the fluorescence polarization anisotropy based competition assays.
Background: In TR-FRET formats the signal depends on donor and acceptor labels being close together.

Assay [1] deals with H929 human cancer cell lines. The assay is described as follows: Cellular viability / proliferation (Cell TiterGlo, 72 h). The format is cell-based. Put shortly: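 Cells were seeded at 1,000 cells/well in medium with 10% FBS and dosed 24 h later with a 2-fold serial dilution of compound (top concentration 50 μM, final DMSO <1%).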
Setting [2] is: Homo sapiens, NCI-H929, 72 h, read-out: GI50 on cellular proliferation of H929 human cancer cell lines, H929 cells, 72 h, Cell TiterGlo, 10% FBS.

Consider 16 compounds from patent publication US11596639B2, “Substituted indole Mcl-1 inhibitors” (Vanderbilt University, priority 2016, dated 2023).

Where two headings read alike, the source gives them in different places.

Mcl-1, sequence (Q07820 172-327): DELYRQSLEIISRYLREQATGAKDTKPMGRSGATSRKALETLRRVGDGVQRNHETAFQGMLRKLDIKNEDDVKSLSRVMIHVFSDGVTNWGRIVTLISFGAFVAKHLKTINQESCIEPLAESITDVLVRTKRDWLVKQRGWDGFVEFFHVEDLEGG

Regarding `COCCOC1CCN(Cc2cc(N3C[C@@H](C)n4c(c(CCCOc5cc(C)c(Cl)c(C)c5)c5ccc(Cl)c(-c6c(C)nn(C)c6C)c54)C3=O)c3c(c2)cc(C(=O)O)n3C)CC1` [Example 650, (R)-7-(7-chloro-10-(3-(4-chloro-3,5-dimethylphenoxy)propyl)-4-methyl-1-oxo-6-(1,3,5-trimethyl-1H-pyrazol-4-yl)-3,4-dihydropyrazino[1,2-a]indol-2(1H)-yl)-5-((4-(2-methoxyethoxy)piperidin-1-yl)methyl)-1-methyl-1H-indole-2-carboxylic acid], the Ki (commonly a measure of affinity in units of concentration, obtained from inhibition or displacement) at Mcl-1 is less than 0.2 nM. In addition, in assay [1] (setting [2]), the GI50 was determined as 210 nM.

For the compound `Cc1cc(OCCCc2c3n(c4c(-c5c(C)ncnc5C)c(Cl)ccc24)[C@H](C)CN(c2cn(C)c4ccc(C(=O)O)nc24)C3=O)cc(C)c1Cl` [Example 651, (R)-3-(7-chloro-10-(3-(4-chloro-3,5-dimethylphenoxy)propyl)-6-(4,6-dimethylpyrimidin-5-yl)-4-methyl-1-oxo-3,4-dihydropyrazino[1,2-a]indol-2(1H)-yl)-1-methyl-1H-pyrrolo[3,2-b]pyridine-5-carboxylic acid], at Mcl-1, the Ki is less than 0.2 nM. In addition, the GI50 in assay [1] (setting [2]) was determined as 290 nM.

`COCCOc1cc(N2C[C@@H](C)n3c(c(CCCOc4cc(C)c(Cl)c(C)c4)c4ccc(Cl)c(-c5c(C)nn(C)c5C)c43)C2=O)c2c(c1)c(C(=O)O)cn2Cc1cc(C)cc(C)n1` [Example 652, (R)-7-(7-chloro-10-(3-(4-chloro-3,5-dimethylphenoxy)propyl)-4-methyl-1-oxo-6-(1,3,5-trimethyl-1H-pyrazol-4-yl)-3,4-dihydropyrazino[1,2-a]indol-2(1H)-yl)-1-((4,6-dimethylpyridin-2-yl)methyl)-5-(2-methoxyethoxy)-1H-indole-3-carboxylic acid]: the Ki at Mcl-1 turned out to be 0.28 nM. Besides, the GI50 in assay [1] (setting [2]) was found to be 370 nM.

Consider `Cc1cc(OCCCc2c3n(c4c(-c5c(C)nn(C)c5C)c(Cl)ccc24)[C@H](C)CN(c2cn(C)c4ccc(-c5cncnc5)cc24)C3=O)cc(C)c1Cl` [Example 653, (R)-7-Chloro-10-(3-(4-chloro-3,5-dimethylphenoxy)propyl)-4-methyl-2-(1-methyl-5-(pyrimidin-5-yl)-1H-indol-3-yl)-6-(1,3,5-trimethyl-1H-pyrazol-4-yl)-3,4-dihydropyrazino[1,2-a]indol-1(2H)-one], for which the Ki at Mcl-1 was found to be 15 nM. Moreover, the GI50 in assay [1] (setting [2]) was determined as 1900 nM.

Consider `COCCOc1cc(N2C[C@@H](C)n3c(c(CCCOc4cc(C)c(Cl)c(C)c4)c4ccc(Cl)c(-c5c(C)nn(C)c5C)c43)C2=O)c2c(c1)c(C(=O)O)cn2C` [Example 654, (R)-7-(7-chloro-10-(3-(4-chloro-3,5-dimethylphenoxy)propyl)-4-methyl-1-oxo-6-(1,3,5-trimethyl-1H-pyrazol-4-yl)-3,4-dihydropyrazino[1,2-a]indol-2(1H)-yl)-5-(2-methoxyethoxy)-1-methyl-1H-indole-3-carboxylic acid], for which the Ki at Mcl-1 is 0.34 nM. Further, the GI50 in assay [1] (setting [2]) stood at 340 nM.

As to `COCCOc1cc(N2C[C@@H](C)n3c(c(CCCOc4cc(C)c(Cl)c(C)c4)c4ccc(Cl)c(-c5c(C)nn(C)c5C)c43)C2=O)c2c(c1)c(C(=O)O)cn2CCOC` [Example 656, (R)-7-(7-chloro-10-(3-(4-chloro-3,5-dimethylphenoxy)propyl)-4-methyl-1-oxo-6-(1,3,5-trimethyl-1H-pyrazol-4-yl)-3,4-dihydropyrazino[1,2-a]indol-2(1H)-yl)-5-(2-methoxyethoxy)-1-(2-methoxyethyl)-1H-indole-3-carboxylic acid], the Ki on Mcl-1 is less than 0.2 nM. Besides, the GI50 in assay [1] (setting [2]) amounted to 250 nM.

Consider `Cc1cc(N2C[C@@H](C)n3c(c(CCCOc4cc(C)c(Cl)c(C)c4)c4ccc(Cl)c(-c5c(C)nn(C)c5C)c43)C2=O)c2c(c1)cc(C(=O)O)n2CCO` [Example 657, (R)-7-(7-chloro-10-(3-(4-chloro-3,5-dimethylphenoxy)propyl)-4-methyl-1-oxo-6-(1,3,5-trimethyl-1H-pyrazol-4-yl)-3,4-dihydropyrazino[1,2-a]indol-2(1H)-yl)-1-(2-hydroxyethyl)-5-methyl-1H-indole-2-carboxylic acid], for which, on Mcl-1, the Ki is less than 0.2 nM. In addition, the GI50 in assay [1] (setting [2]) was 610 nM.

As to `Cc1cc(N2C[C@@H](C)n3c(c(CCCOc4cc(C)c(Cl)c(C)c4)c4ccc(Cl)c(-c5c(C)nn(C)c5C)c43)C2=O)c2ncc(C(=O)O)cc2c1` [Example 658, (R)-8-(7-chloro-10-(3-(4-chloro-3,5-dimethylphenoxy)propyl)-4-methyl-1-oxo-6-(1,3,5-trimethyl-1H-pyrazol-4-yl)-3,4-dihydropyrazino[1,2-a]indol-2(1H)-yl)-6-methylquinoline-3-carboxylic acid], the Ki on Mcl-1 was less than 0.2 nM. In addition, in assay [1] (setting [2]), the GI50 was 250 nM.

On to `Cc1cc(OCCCc2c3n(c4c(-c5c(C)nn(C)c5C)c(Cl)ccc24)[C@H](C)CN(c2cn(C)c4ccc(-n5ccnn5)nc24)C3=O)cc(C)c1Cl` [Example 659, (R)-7-Chloro-10-(3-(4-chloro-3,5-dimethylphenoxy)propyl)-4-methyl-2-(1-methyl-5-(1H-1,2,3-triazol-1-yl)-1H-pyrrolo[3,2-b]pyridin-3-yl)-6-(1,3,5-trimethyl-1H-pyrazol-4-yl)-3,4-dihydropyrazino[1,2-a]indol-1(2H)-one], for which, on Mcl-1, the Ki was 0.96 nM. Also, the GI50 in assay [1] (setting [2]) was 930 nM.

On to `COCCn1c(C(=O)O)cc2cc(OC)cc(N3C[C@@H](C)n4c(c(CCCOc5cc(C)c(Cl)c(C)c5)c5ccc(Cl)c(-c6c(C)ncnc6C)c54)C3=O)c21` [Example 660, (R)-7-(7-chloro-10-(3-(4-chloro-3,5-dimethylphenoxy)propyl)-6-(4,6-dimethylpyrimidin-5-yl)-4-methyl-1-oxo-3,4-dihydropyrazino[1,2-a]indol-2(1H)-yl)-5-methoxy-1-(2-methoxyethyl)-1H-indole-2-carboxylic acid], for which, at Mcl-1, the Ki was less than 0.2 nM. Besides, in assay [1] (setting [2]), the GI50 stood at 330 nM.

Take `Cc1cc(OCCCc2c3n(c4c(-c5c(C)nn(C)c5C)c(Cl)ccc24)[C@H](C)CN(c2cccc4c(C(=O)O)ccnc24)C3=O)cc(C)c1Cl` [Example 661, (R)-8-(7-chloro-10-(3-(4-chloro-3,5-dimethylphenoxy)propyl)-4-methyl-1-oxo-6-(1,3,5-trimethyl-1H-pyrazol-4-yl)-3,4-dihydropyrazino[1,2-a]indol-2(1H)-yl)quinoline-4-carboxylic acid]: the Ki on Mcl-1 was found to be 0.23 nM. Besides, the GI50 in assay [1] (setting [2]) was 2400 nM.

Consider `Cc1cc(OCCCc2c3n(c4c(-c5c(C)nn(C)c5C)c(Cl)ccc24)[C@H](C)CN(c2cn(C)c4ccc(-n5nccn5)cc24)C3=O)cc(C)c1Cl` [Example 662, (R)-7-Chloro-10-(3-(4-chloro-3,5-dimethylphenoxy)propyl)-4-methyl-2-(1-methyl-5-(2H-1,2,3-triazol-2-yl)-1H-indol-3-yl)-6-(1,3,5-trimethyl-1H-pyrazol-4-yl)-3,4-dihydropyrazino[1,2-a]indol-1(2H)-one], for which, on Mcl-1, the Ki was 0.93 nM. Moreover, the GI50 in assay [1] (setting [2]) was 1900 nM.

Turning to `Cc1cc(OCCCc2c3n(c4c(-c5c(C)nc(CN6CCN(C)C(=O)C6)nc5C)c(Cl)ccc24)[C@H](C)CN(c2cn(C)c4ccc(-c5ncn(C)n5)cc24)C3=O)cc(C)c1Cl` [Example 663, (R)-7-chloro-10-(3-(4-chloro-3,5-dimethylphenoxy)propyl)-6-(4,6-dimethyl-2-((4-methyl-3-oxopiperazin-1-yl)methyl)pyrimidin-5-yl)-4-methyl-2-(1-methyl-5-(1-methyl-1H-1,2,4-triazol-3-yl)-1H-indol-3-yl)-3,4-dihydropyrazino[1,2-a]indol-1(2H)-one], the Ki on Mcl-1 stood at 0.52 nM. Moreover, the GI50 in assay [1] (setting [2]) was less than 200 nM.

Consider `Cc1cc(OCCCc2c3n(c4c(-c5c(C)nn(C)c5C)c(Cl)ccc24)[C@H](C)CN(c2cn(C)c4ccc(-n5nccn5)nc24)C3=O)cc(C)c1Cl` [Example 664, (R)-7-Chloro-10-(3-(4-chloro-3,5-dimethylphenoxy)propyl)-4-methyl-2-(1-methyl-5-(2H-1,2,3-triazol-2-yl)-1H-pyrrolo[3,2-b]pyridin-3-yl)-6-(1,3,5-trimethyl-1H-pyrazol-4-yl)-3,4-dihydropyrazino[1,2-a]indol-1(2H)-one], for which the Ki on Mcl-1 turned out to be 0.64 nM. Moreover, the GI50 in assay [1] (setting [2]) stood at 580 nM.

For `COCCn1c(C(=O)O)cc2cc(OC)cc(N3C[C@@H](C)n4c(c(CCCOc5cc(C)c(Cl)c(C)c5)c5ccc(Cl)c(-c6c(C)nn(C)c6C)c54)C3=O)c21` [Example 665, (R)-7-(7-chloro-10-(3-(4-chloro-3,5-dimethylphenoxy)propyl)-4-methyl-1-oxo-6-(1,3,5-trimethyl-1H-pyrazol-4-yl)-3,4-dihydropyrazino[1,2-a]indol-2(1H)-yl)-5-methoxy-1-(2-methoxyethyl)-1H-indole-2-carboxylic acid], the Ki on Mcl-1 is less than 0.2 nM. For the same compound, the GI50 in assay [1] (setting [2]) came to 280 nM.

On to `Cc1cc(OCCCc2c3n(c4c(-c5c(C)nn(C)c5C)c(Cl)ccc24)[C@H](C)CN(c2cn(C[C@H]4CCC[N+]4(C)C)c4ccc(C(=O)O)cc24)C3=O)cc(C)c1Cl` [Example 667, (R)-2-((5-carboxy-3-((R)-7-chloro-10-(3-(4-chloro-3,5-dimethylphenoxy)propyl)-4-methyl-1-oxo-6-(1,3,5-trimethyl-1H-pyrazol-4-yl)-3,4-dihydropyrazino[1,2-a]indol-2(1H)-yl)-1H-indol-1-yl)methyl)-1,1-dimethylpyrrolidin-1-ium], for which the Ki on Mcl-1 was less than 0.2 nM. In addition, in assay [1] (H929 cells, 72 h, Cell TiterGlo, 10% FBS, read-out: GI50 on cellular proliferation of H929 human cancer cell lines), the GI50 is 8200 nM.
